From patent publication US8541588B2, “Sulfonamide derivatives” (Pfizer Limited, priority 2009, dated 2013)

target: T1, Nav1.7 (or SCN9A) channel; HEK cells stably transfected with hSCN9A (Homo sapiens, UniProt Q15858); test: Nav1.7 block, PatchXpress 7000 automated whole-cell voltage clamp, estimated IC50 (EIC50); type: cell-based; conditions: PatchXpress platform; hSCN9A HEK cells held at V1/2 of inactivation; estimated IC50
T1 construct: expressed in transfected cells
T1 sequence (Q15858 whole entry): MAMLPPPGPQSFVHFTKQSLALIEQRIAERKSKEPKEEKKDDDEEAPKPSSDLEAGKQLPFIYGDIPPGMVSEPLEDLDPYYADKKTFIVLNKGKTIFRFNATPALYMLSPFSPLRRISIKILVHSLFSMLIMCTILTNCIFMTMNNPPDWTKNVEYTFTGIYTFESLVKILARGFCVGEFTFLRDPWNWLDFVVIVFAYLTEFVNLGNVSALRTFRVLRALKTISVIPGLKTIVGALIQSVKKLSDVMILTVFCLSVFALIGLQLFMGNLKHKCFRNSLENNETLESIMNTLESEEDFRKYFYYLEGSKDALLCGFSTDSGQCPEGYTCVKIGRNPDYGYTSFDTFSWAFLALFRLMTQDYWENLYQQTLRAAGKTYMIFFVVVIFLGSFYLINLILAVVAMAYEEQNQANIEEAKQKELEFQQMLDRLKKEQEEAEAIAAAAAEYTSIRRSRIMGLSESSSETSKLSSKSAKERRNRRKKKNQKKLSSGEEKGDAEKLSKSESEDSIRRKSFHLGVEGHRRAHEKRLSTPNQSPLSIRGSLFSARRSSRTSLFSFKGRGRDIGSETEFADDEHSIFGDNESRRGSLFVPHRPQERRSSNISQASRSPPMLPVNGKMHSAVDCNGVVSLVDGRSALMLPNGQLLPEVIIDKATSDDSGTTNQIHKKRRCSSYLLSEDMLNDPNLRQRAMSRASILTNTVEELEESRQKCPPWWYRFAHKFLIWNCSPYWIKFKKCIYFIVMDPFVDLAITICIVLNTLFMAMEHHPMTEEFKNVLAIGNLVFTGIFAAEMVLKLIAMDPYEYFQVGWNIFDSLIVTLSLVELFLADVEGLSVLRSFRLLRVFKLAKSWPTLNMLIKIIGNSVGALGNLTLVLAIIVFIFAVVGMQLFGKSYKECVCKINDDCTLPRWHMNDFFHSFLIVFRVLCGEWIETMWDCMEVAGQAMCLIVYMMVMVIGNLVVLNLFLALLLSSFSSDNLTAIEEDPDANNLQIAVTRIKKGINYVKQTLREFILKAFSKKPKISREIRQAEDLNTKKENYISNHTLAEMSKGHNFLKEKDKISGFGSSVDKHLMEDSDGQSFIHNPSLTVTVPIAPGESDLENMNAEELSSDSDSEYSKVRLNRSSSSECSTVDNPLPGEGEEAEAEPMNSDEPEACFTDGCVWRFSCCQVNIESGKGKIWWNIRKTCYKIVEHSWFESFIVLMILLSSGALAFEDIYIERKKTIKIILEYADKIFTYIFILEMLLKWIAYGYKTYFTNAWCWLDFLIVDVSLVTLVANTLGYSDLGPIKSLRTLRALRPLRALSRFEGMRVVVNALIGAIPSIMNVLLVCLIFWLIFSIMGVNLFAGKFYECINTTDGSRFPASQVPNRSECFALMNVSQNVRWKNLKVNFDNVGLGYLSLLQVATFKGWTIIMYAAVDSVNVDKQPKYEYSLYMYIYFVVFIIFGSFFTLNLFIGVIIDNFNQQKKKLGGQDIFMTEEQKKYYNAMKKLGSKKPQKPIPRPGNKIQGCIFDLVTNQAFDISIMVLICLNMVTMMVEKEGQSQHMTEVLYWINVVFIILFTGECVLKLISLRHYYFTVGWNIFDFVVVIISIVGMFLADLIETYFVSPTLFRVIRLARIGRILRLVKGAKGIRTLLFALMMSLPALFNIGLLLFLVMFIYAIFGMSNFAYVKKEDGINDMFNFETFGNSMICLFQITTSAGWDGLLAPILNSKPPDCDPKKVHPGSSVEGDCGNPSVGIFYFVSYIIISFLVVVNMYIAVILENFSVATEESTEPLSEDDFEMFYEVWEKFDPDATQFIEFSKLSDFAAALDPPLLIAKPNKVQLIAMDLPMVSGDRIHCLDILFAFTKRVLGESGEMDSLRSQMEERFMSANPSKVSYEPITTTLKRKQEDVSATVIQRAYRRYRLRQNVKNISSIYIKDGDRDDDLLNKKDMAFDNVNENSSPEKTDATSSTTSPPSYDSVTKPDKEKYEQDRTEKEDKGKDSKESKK

Row | IC50 | SMILES
1 | 2800 nM | N#Cc1cc(S(=O)(=O)Nc2nccs2)ccc1Oc1cc(-c2ccc(Cl)cc2)nn1CC(F)(F)F [Example 189, 4-[5-(4-chloro-phenyl)-2-(2,2,2-trifluoro-ethyl)-2H-pyrazol-3-yloxy]-3-cyano-N-thiazol-2-yl-benzenesulfonamide]
2 | 7710 nM | N#Cc1cc(S(=O)(=O)Nc2nccs2)ccc1Oc1cc(-c2ccccc2)nn1CC(F)(F)F [Example 190, 3-cyano-4-[5-phenyl-2-(2,2,2-trifluoro-ethyl)-2H-pyrazol-3-yloxy]-N-thiazol-2-yl-benzenesulfonamide]
3 | >10000 nM | N#Cc1cc(S(=O)(=O)Nc2nccs2)ccc1Oc1cc(C2CC2)nn1-c1ccccn1 [Example 191, 3-cyano-4-(5-cyclopropyl-2-pyridin-2-yl-2H-pyrazol-3-yloxy)-N-thiazol-2-yl-benzenesulfonamide]
4 | 2050 nM | N#Cc1cc(S(=O)(=O)Nc2nccs2)ccc1Oc1cc(C2CC2)nn1C1CCCCC1 [Example 192, 3-Cyano-4-(2-cyclohexyl-5-cyclopropyl-2H-pyrazol-3-yloxy)-N-thiazol-2-yl-benzenesulfonamide]
5 | 1230 nM | N#Cc1cc(S(=O)(=O)Nc2nccs2)ccc1Oc1cc(C2CC2)nn1-c1ccccc1F [Example 193, 3-cyano-4-[5-cyclopropyl-2-(2-fluoro-phenyl)-2H-pyrazol-3-yloxy]-N-thiazol-2-yl-benzenesulfonamide]
6 | 36800 nM | N#Cc1cc(S(=O)(=O)Nc2nccs2)ccc1Oc1cc(C2CC2)nn1CC(F)(F)F [Example 194, 3-Cyano-4-[5-cyclopropyl-2-(2,2,2-trifluoro-ethyl)-2H-pyrazol-3-yloxy]-N-thiazol-2-yl-benzenesulfonamide]
7 | 1080 nM | N#Cc1cc(S(=O)(=O)Nc2nccs2)ccc1Oc1cc(C2CC2)nn1-c1cc(F)ccc1F [Example 195, 3-Cyano-4-[5-cyclopropyl-2-(2,5-difluoro-phenyl)-2H-pyrazol-3-yloxy]-N-thiazol-2-yl-benzenesulfonamide]
8 | 30 nM | Cn1ncc(F)c1-c1cc(Cl)ccc1Oc1ccc(S(=O)(=O)Nc2nccs2)cc1C#N [Example 196, 4-[4-Chloro-2-(4-fluoro-2-methyl-2H-pyrazol-3-yl)-phenoxy]-3-cyano-N-thiazol-2-yl-benzenesulfonamide]
9 | 1130 nM | Cc1c(Cl)ccc(Oc2ccc(S(=O)(=O)Nc3nccs3)cc2C#N)c1-c1nnco1 [Example 197, 4-(4-chloro-3-methyl-2-[1,3,4]oxadiazol-2-yl-phenoxy)-3-cyano-N-thiazol-2-yl-benzenesulfonamide]
10 | 2470 nM | CC(C)(C)n1nccc1-c1c(Cl)cccc1Oc1ccc(S(=O)(=O)Nc2nccs2)cc1C#N [Example 198, 4-[2-(2-tert-butyl-2H-pyrazol-3-yl)-3-chloro-phenoxy]-3-cyano-N-thiazol-2-yl-benzenesulfonamide]
11 | 110 nM | N#Cc1cc(S(=O)(=O)Nc2nccs2)ccc1Oc1cccc(Cl)c1-c1ccn[nH]1 [Example 199, 4-[3-chloro-2-(2H-pyrazol-3-yl)-phenoxy]-3-cyano-N-thiazol-2-yl-benzenesulfonamide]
12 | 100 nM | Cc1n[nH]cc1-c1ccccc1Oc1ccc(S(=O)(=O)Nc2nccs2)cc1C#N [Example 200, 3-cyano-4-(2-(3-methyl-1H-pyrazol-4-yl)phenoxy)-N-(thiazol-2-yl)benzenesulfonamide]
13 | 420 nM | N#Cc1cc(S(=O)(=O)Nc2nccs2)ccc1Oc1ccc(F)cc1-c1ccc(CCO)cc1 [Example 201, 3-cyano-4-{[5-fluoro-4′-(2-hydroxyethyl)biphenyl-2-yl]oxy}-N-1,3-thiazol-2-ylbenzenesulfonamide]
14 | 600 nM | N#Cc1cc(S(=O)(=O)Nc2nccs2)ccc1Oc1ccc(-c2cc(C(F)(F)F)n[nH]2)cc1 [Example 202, 3-cyano-N-thiazol-2-yl-4-[4-(5-trifluoromethyl-2H-pyrazol-3-yl)-phenoxy]-benzenesulfonamide]
15 | 7480 nM | NC(=O)c1cc(S(=O)(=O)Nc2nccs2)ccc1Oc1ccc(-c2cc(C(F)(F)F)n[nH]2)cc1 [Example 203, 5-(N-thiazol-2-ylsulfamoyl)-2-(4-(3-(trifluoromethyl)-1H-pyrazol-5-yl)phenoxy)benzamide]
16 | 3140 nM | O=S(=O)(Nc1ncns1)c1ccc(Oc2ccn(Cc3ccc(Cl)cc3)n2)c(C(F)(F)F)c1 [Example 204, 4-{[1-(4-chlorobenzyl)-1H-pyrazol-3-yl]oxy}-N-1,2,4-thiadiazol-5-yl-3-(trifluoromethyl)benzenesulfonamide]
17 | 330 nM | O=S(=O)(Nc1ncns1)c1ccc(Oc2ccccc2-c2ccccc2)c(C(F)(F)F)c1 [Example 205, 4-(biphenyl-2-yloxy)-N-1,2,4-thiadiazol-5-yl-3-(trifluoromethyl)benzenesulfonamide]
18 | 1190 nM | O=S(=O)(Nc1nccs1)c1ccc(Oc2cnn(Cc3ccc(Cl)cc3)c2)cc1F [Example 206, 4-(1-(4-chlorobenzyl)-1H-pyrazol-4-yloxy)-2-fluoro-N-(thiazol-2-yl)benzenesulfonamide]

Row | IC50 | SMILES
19 | 590 nM | O=S(=O)(Nc1nccs1)c1ccc(Oc2ccc(-c3ccccc3)cc2)cc1F [Example 209, 4-(biphenyl-4-yloxy)-2-fluoro-N-(thiazol-2-yl)benzenesulfonamide]
20 | 1370 nM | O=S(=O)(Nc1nccs1)c1ccc(Oc2cccc(-c3ccccc3)c2)cc1F [Example 210, 4-(biphenyl-3-yloxy)-2-fluoro-N-(thiazol-2-yl)benzenesulfonamide]
21 | 110 nM | O=S(=O)(Nc1nccs1)c1ccc(Oc2ccc(Cl)cc2-c2ccnn2-c2ccccc2)cc1F [Example 211, 4-(4-chloro-2-(1-phenyl-1H-pyrazol-5-yl)phenoxy)-2-fluoro-N-(thiazol-2-yl)benzenesulfonamide]
22 | 15400 nM | CC(C)(C)n1ccc(-c2cc(F)ccc2Oc2ccc(S(=O)(=O)Nc3nccs3)c(F)c2)n1 [Example 212, 4-(2-(1-tert-butyl-1H-pyrazol-3-yl)-4-fluorophenoxy)-2-fluoro-N-(thiazol-2-yl)benzenesulfonamide]
23 | 1600 nM | O=S(=O)(Nc1nccs1)c1ccc(Oc2ccc(F)cc2-c2ccn[nH]2)cc1F [Example 213, 2-fluoro-4-(4-fluoro-2-(1H-pyrazol-5-yl)phenoxy)-N-(thiazol-2-yl)benzenesulfonamide]
24 | 2410 nM | O=S(=O)(Nc1nccs1)c1ccc(Oc2nc(Cc3ccc(Cl)cc3)cs2)cc1F [Example 214, 4-[4-(4-chloro-benzyl)-thiazol-2-yloxy]-2-fluoro-N-thiazol-2-yl-benzenesulfonamide]
25 | 910 nM | Cn1ccc(-c2cc(Cl)ccc2Oc2ccc(S(=O)(=O)Nc3nccs3)cc2F)n1 [Example 216, 4-(4-chloro-2-(1-methyl-1H-pyrazol-3-yl)phenoxy)-3-fluoro-N-(thiazol-2-yl)benzenesulfonamide]
26 | 510 nM | CC(C)(C)n1nccc1-c1cc(F)ccc1Oc1ccc(S(=O)(=O)Nc2nccs2)cc1F [Example 217, 4-(2-(1-tert-butyl-1H-pyrazol-5-yl)-4-fluorophenoxy)-3-fluoro-N-(thiazol-2-yl)benzenesulfonamide]
27 | 230 nM | O=S(=O)(Nc1nccs1)c1ccc(Oc2ccc(F)cc2-c2ccn[nH]2)c(F)c1 [Example 218, 3-fluoro-4-(4-fluoro-2-(1H-pyrazol-5-yl)phenoxy)-N-(thiazol-2-yl)benzenesulfonamide]
28 | 20 nM | Cn1nccc1-c1cc(Cl)ccc1Oc1ccc(S(=O)(=O)Nc2nccs2)cc1F [Example 219, 4-(4-chloro-2-(1-methyl-1H-pyrazol-5-yl)phenoxy)-3-fluoro-N-(thiazol-2-yl)benzenesulfonamide]
29 | 150 nM | O=S(=O)(Nc1nccs1)c1ccc(Oc2ccc(Cl)cc2-c2ccnn2Cc2ccccc2)c(F)c1 [Example 220, 4-(2-(1-benzyl-1H-pyrazol-5-yl)-4-chlorophenoxy)-3-fluoro-N-(thiazol-2-yl)benzenesulfonamide]
30 | 450 nM | CCOC(=O)Cn1nccc1-c1cc(F)ccc1Oc1ccc(S(=O)(=O)Nc2nccs2)cc1F [Example 221, ethyl 2-(5-(5-fluoro-2-(2-fluoro-4-(N-thiazol-2-ylsulfamoyl)phenoxy)phenyl)-1H-pyrazol-1-yl)acetate]
31 | 60 nM | Cc1ccc(Oc2ccc(S(=O)(=O)Nc3nccs3)cc2F)c(-c2ccnn2C)c1 [Example 222, 3-fluoro-4-(4-methyl-2-(1-methyl-1H-pyrazol-5-yl)phenoxy)-N-(thiazol-2-yl)benzenesulfonamide]
32 | 1510 nM | Cc1ccc(Oc2ccc(S(=O)(=O)Nc3nccs3)cc2F)c(-c2c(C)cnn2C(C)(C)C)c1 [Example 223, 4-(2-(1-tert-butyl-4-methyl-1H-pyrazol-5-yl)-4-methylphenoxy)-3-fluoro-N-(thiazol-2-yl)benzenesulfonamide]
33 | 770 nM | Cc1ccc(Oc2ccc(S(=O)(=O)Nc3nccs3)cc2F)c(-c2[nH]ncc2C)c1 [Example 224, 3-fluoro-4-(4-methyl-2-(4-methyl-1H-pyrazol-5-yl)phenoxy)-N-(thiazol-2-yl)benzenesulfonamide]
34 | 430 nM | O=S(=O)(Nc1nccs1)c1ccc(Oc2ccc(F)cc2-c2ccnn2CC(F)(F)F)c(F)c1 [Example 225, 3-fluoro-4-(4-fluoro-2-(1-(2,2,2-trifluoroethyl)-1H-pyrazol-5-yl)phenoxy)-N-(thiazol-2-yl)benzenesulfonamide]
35 | 30 nM | Cn1nccc1-c1cc(Br)ccc1Oc1ccc(S(=O)(=O)Nc2nccs2)cc1F [Example 226, 4-(4-bromo-2-(1-methyl-1H-pyrazol-5-yl)phenoxy)-3-fluoro-N-(thiazol-2-yl)benzenesulfonamide]

Row | SMILES | IC50
36 | COc1ccccc1-c1ccccc1Oc1ccc(S(=O)(=O)Nc2nccs2)c(F)c1 [Example 207, 2-fluoro-4-(2′-methoxybiphenyl-2-yloxy)-N-(thiazol-2-yl)benzenesulfonamide] | 1030 nM
37 | COc1ccccc1-c1ccccc1Oc1ccc(S(=O)(=O)Nc2nccs2)c(F)c1 [Example 208, 2-fluoro-4-(2′-methoxybiphenyl-2-yloxy)-N-(thiazol-2-yl)benzenesulfonamide] | 130 nM
